We go through eight compounds from paper PMC12057046, “Elucidation of short linear motif-based interactions of the MIT and rhodanese domains of the ubiquitin-specific protease 8” (Biology Direct, 2025).

By Kd is commonly meant a measure of binding affinity in units of concentration.

In one assay the target is T1, USP8 Rhod domain (Homo sapiens, UniProt P40818).
T1 construct: USP8 Rhod (174–317) (UniProt: P40818); GST (cleaved yes); made in house; host or cells: Escherichia coli BL21-Gold (DE3)
T1 sequence (P40818 174-317): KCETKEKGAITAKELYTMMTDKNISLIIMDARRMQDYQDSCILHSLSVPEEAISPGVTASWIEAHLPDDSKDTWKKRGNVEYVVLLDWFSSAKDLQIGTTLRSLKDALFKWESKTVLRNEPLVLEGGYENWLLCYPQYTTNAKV
In words: Competitive fluorescence polarization (displacement of FITC-TET3_1705 − 1720). In kind it is binding. To be noted: FP displacement, 1.5 µM protein, 10 nM FITC-labeled peptide, 50 mM sodium phosphate pH 7.4, 1 mM DTT; mean ± SD, N = 3 technical triplicates (Fig. 3 legend). How it is done:
We next evaluated the peptide binding of the Rhod domain by ProP-PD selections. […] (February 2025).
The peptides were obtained from GeneCust (France) with > 95% purity. Measurement of the direct binding with a constant concentration of FITC-labeled peptides was performed by increasing concentration of the protein. The KD value from the direct binding experiment was obtained by fitting against a quadratic equation (Eq. 4) where “pept” indicates the fixed probe peptide concentrations, X indicates the protein concentration, the constant A is the signal amplitude divided by probe peptide concentration, and B is the plateau value. Eq. 4: [drawing 9]
Displacement experiments were carried out by increasing concentration of the unlabeled peptides. The data were fitted with a sigmoidal dose-response equation. The results were analysed with GraphPad Prism version 9.2.0.
For orientation: Fluorescence polarisation rises when a labelled molecule tumbles more slowly, as on binding a larger partner.

The subject of assay [1] is USP8 MIT domain. Conditions: 187-ELSQRLARLR-196; ref [17], [38]; cited from earlier work. The source says:
To further elucidate the peptide binding determinants of the interactions with USP8 MIT domain we performed a deep mutational scanning (DMS) analysis of two model peptides: one peptide from melanophilin (MLPH481 − 496: […]) which served as a representative of the MIM1-like motif and the EFCAB12 peptide (EFCAB12_1 − 16: […]), which shares some sequence similarity with the DBP116 − 131 peptide. We designed a library of peptides in which each position of the two parental peptides were mutated to all other amino acids (except cysteine) following a classic saturation mutag ...

The subject of assay [2] is USP8 MIT domain. In words: Proteomic peptide-phage display (ProP-PD) selection against USP8 MIT domain. The class given is binding, human. Further details: Confidence: scale not given here. To be noted: for NGS counts (%): ProP-PD, human disorderome library, GST-tagged MIT bait, four rounds of selection, percent of NGS counts associated with each peptide, Fig. 1B; for max_counts: Total NGS counts; for Confidence: calculated based on four metrics: overlapping peptides, replicated peptides, motif match, peptide counts; for Counts: fraction of NGS counts for a selection; for Promiscuity: number of baits selections where the peptide has been observed, calculated on the domain level; for Replicates: number of screens against the bait protein in which the peptide has been found; for Specificity: proportion for the current bait of the total NGS read counts of the peptide for all baits screened with this library. How it is done:
We explored the peptide-binding of the USP8 MIT domain by using the purified GST-tagged MIT domain as bait in proteomic peptide-phage display (ProP-PD) selections and a library designed to display the predicted unstructured regions of the human proteome. The peptide-coding regions of the binding-enriched phage pools were analysed by next-generation sequencing (NGS). After filtering for high confidence ligands, ten ligands remained (Fig. 1B; Supplementary Table S1). None of the ten identified protein-protein interactions had been previously reported, based on comparison with the information available in IntAct, HIPPIE and BioGrid (February 2025). Of the USP8 interacting proteins found, the D site-binding protein (DBP), which is a clock-controlled transcription factor, appears as an interesting ligand as USP8 has been reported to be involved in controlling the circadian rhythm. Also, the CCDC88A-encoded protein Girdin is an interactor of potential biological relevance as it is a scaffolding protein involved in the EGFR pathway which USP8 is known to regulate. At the motif level, there was no shared consensus motif among the ten peptide ligands. However, by manual inspection we noticed that four of the peptides contained a shared [LI]xxR[IY]xxL sequence, which appears to be a variation of the [DE]xxLxxRLxxL[KR] MIM1 motif described in the Eukaryotic Linear Motif resource (ELM) (Fig. 1B). We performed a SPOT array alanine scanning analysis in which peptides are synthesised on a membrane, and where each amino acid position of the peptide is mutated to alanine (or glycine if alanine is in the wild type peptide) to evaluate the effect of the amino acid residues in binding. We tested two peptides containing the apparent MIM1-like motif, one from Girdin (Girdin1192 − 1207) and one from the histone-lysine N-methyltransferase SETD1B (SETD1B492 − 507). […] AlphaFold3 (AF3) modelling of the four peptides with the variant MIM1 motif and the MIT domain docked the peptides with high confidence (ipTM scores: HIVEP1_741 − 756: 0.87, Girdin1192 − 1207: 0.85, MLPH481 − 496: 0.82, SETD1B492 − 507: 0.75) at the expected MIM1 binding pocket (Fig. 1D). […] However, the USP8 MIT selection was dominated (more than 94% of NGS counts) by two peptides that lack an apparent MIM1 motif. The two peptides were from the EF-hand calcium-binding domain-containing protein 12 (EFCAB12_1 − 16: […]) and from DBP (DBP116 − 131: […]) (Fig. 1B). […] In comparison to this, the EFCAB12_1 − 16 peptide shares a potential Dx[YF]xxxH[SG] motif with the DBP116 − 131 (Fig. 1B). […] The AF3 model of DBP116 − 131 peptide supports the interaction of D120 of the DBP116 − 131 peptide with the residues K74 and N71 in the MIT domain (Fig. 1G), emphasizing the significance of the aspartic acid at this position. […] Of them, two peptides (SYNE2_853 − 868 and PKNOX1_56 − 71) where placed in the same binding site as the Girdin and DBP peptides with high confidences by AF3 modelling (ipTM 0.92 and 0.74; Supplementary Fig. S3).
Four rounds of phage selections were carried out using the second generation human disorderome library or the constructed deep mutational scanning library. At least three individual replicates were used for each bait protein. 10 µg of GST-tagged proteins or GST control (diluted in PBS from the stock of proteins kept in the purification elution buffer) were immobilized in 100 µL PBS on a 96-well MaxiSorp (Nunc) plate overnight at 4 °C. The plates were incubated with blocking buffer (with 0.5% BSA in PBS) for 1 h at 4 °C followed by washing with 0.05% Tween 20 in PBS four times. The naïve phage library (10^11 CFU) was diluted in 1/5th volume PEG/NaCl (20% PEG-8000, 0.4 M NaCl) and 1X PBS, incubated on ice for 10 min and centrifuged at 10,000 [drawing 3] g for 10 min. The pellet was resuspended in the volume of PBS (100 µL/ well). […]

In assay [3] the test system is USP8 MIT domain. In words: SPOT array alanine scanning, USP8 MIT domain. Conditions: cellulose-bound peptides, GST-tagged MIT 100 µM, 5% skim milk TBST, overnight 4 °C, anti-GST HRP chemiluminescence; normalized to wild type. In kind it is binding, human. How it is done:
SPOT array alanine scanning of peptides was designed, and cellulose-bound peptides were synthesized using Fluorenylmethyloxycarbonyl (Fmoc) solid phase synthesis with a MultiPep synthesizer (INTAVIS Peptide Services, Tübingen, Germany). The membranes of predicted peptides were purchased by JPT Peptide Technologies (Berlin, Germany). The membranes were incubated with blocking buffer containing 5% skim milk in TBST (50 mM Tris, 150 mM NaCl pH 7.5, 0.05% Tween-20) for two hours at room temperature. The blocked membranes were incubated with GST-tagged proteins (100 µM for MIT domain and 150 µM for the Rhodanese domain) in blocking buffer overnight at 4 °C. After rinsed with TBST the membranes were incubated with HRP-conjugated anti-GST antibody (Cytiva, RPN1236; 1:3000 dilution) in blocking buffer for 1 h at 4 °C and subsequently rinsed with TBST to remove any excess antibody. The ECL reagent (Clarity Max Western ECL substrate, 1705062, BioRad) was used for chemiluminescence read-out with the ChemiDoc Imaging system (BioRad). The images were analysed with Fiji (ImageJ2 version 2.9.0). SLiMSearch4 was used to design the peptide arrays with known interactors predicted to contain the motifs. The background signal intensity was subtracted, and the corrected signal intensities were normalized to the positive control and presented as percentage.

Assay [4] concerns USP8 MIT domain. In words: SPOT array of predicted peptides from known interactors, USP8 MIT domain. The class given is binding, human. To be noted: for Percentage (%) normalized to highest intensity and corrected for background: SPOT array, GST-tagged MIT 100 µM, overnight 4 °C, chemiluminescence, highest intensity = DNAJB6; for Percentage (%): Supplementary Fig. 4B, normalized to the highest intensity and corrected for background. The method, boiled down:
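Peptide membranes tiling predicted motif sites, plus alanine-scan variants, were blocked in 5% milk/TBST (pH 7.5) for 2 h at RT, then probed overnight at 4 °C with GST-tagged MIT domain at 100 μM. Detection used HRP anti-GST and ECL chemiluminescence; background-subtracted signal given as percentage of positive control.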

On to `CSCC[C@H](NC(=O)CN)C(=O)N[C@@H](CCC(=O)O)C(=O)N[C@@H](CCCNC(=N)N)C(=O)N[C@H](C(=O)N[C@@H](CC(C)C)C(=O)NCC(=O)NCC(=O)N[C@@H](CC(C)C)C(=O)N[C@@H](CO)C(=O)N[C@@H](CO)C(=O)N1CCC[C@H]1C(=O)N[C@@H](CC(C)C)C(=O)N[C@@H](CCCNC(=N)N)C(=O)N[C@@H](CC(C)C)C(=O)N[C@@H](CC(C)C)C(=O)O)C(C)C` [KIAA1614_568 − 583], for which, on USP8 Rhod domain, the Kd amounted to 10 ± 2 µM.

`CSCC[C@H](NC(=O)[C@H](CCCCN)NC(=O)[C@H](C)NC(=O)[C@H](CCC(=O)O)NC(=O)[C@H](Cc1c[nH]c2ccccc12)NC(=O)[C@H](CC(C)C)NC(=O)[C@H](C)NC(=O)[C@H](CC(C)C)NC(=O)CN)C(=O)N[C@@H](CCCCN)C(=O)N[C@@H](CCC(N)=O)C(=O)N[C@@H](CC(C)C)C(=O)N[C@@H](C)C(=O)N[C@@H](CCC(=O)O)C(=O)N[C@@H](CCCNC(=N)N)C(=O)N[C@@H](C)C(=O)O` [TET3_1705 − 1720] came in with an equilibrium dissociation constant (Kd) at USP8 Rhod domain of 33 ± 9 µM.

For ELSQRLARLR [CHMP1B], in the assay on USP8 MIT domain [1], the “binding to USP8 MIT” value is recorded as “USP8 MIT binding peptides”.

In the case of “EVEHRDLEDRYNQLLK [Girdin1192 − 1207, CCDC88A-encoded protein Girdin peptide]”, in the assay on USP8 MIT domain [2], the “NGS counts (%)” value was found to be 1.10%, the max_counts is listed as 80, the Confidence is 2 and the Counts came to 0.002924. In the assay with USP8 MIT domain [2], the Promiscuity was 1, the Replicates turned out to be 3 and the Specificity is reported as 1. In addition, the “residues important for binding by SPOT array alanine scanning” value (“residues important for binding” below) in the assay on USP8 MIT domain [3] is “binding to the Girdin1192 − 1207 peptide was lost when the residues LExRYxxLL were mutated to alanine”.

On to “NEWGNRFKKLADMYG [CDH1_863 − 877, Cadherin-1 peptide]”, for which, in the assay on USP8 MIT domain [4], the “Percentage (%) normalized to highest intensity and corrected for background” value (“Percentage (%) normalized” below) is reported as 71%; the “Percentage (%)” value was 71%. Moreover, in the assay on USP8 MIT domain [3], the “residues important for binding” value was “corroborated the RFxxL motif and revealed a longer stretch is contributing to binding, with an upstream tryptophan being critical for the interaction”.

Regarding “PEKPHDSLDSRIEMLL [SETD1B492 − 507, Histone-lysine N-methyltransferase SETD1B peptide]”, in the assay with USP8 MIT domain [2], the “NGS counts (%)” value is 1.37%, the max_counts is reported as 70, the Confidence is reported as 3 and the Counts was determined as 0.001866. In the assay on USP8 MIT domain [2], the Promiscuity was 1, the Replicates was 3 and the Specificity is 1. Besides, the “residues important for binding” value with USP8 MIT domain [3] is “confirmed the contributions of the motif residues in binding and the aspartic acid in position p2 of the motif”.

Take “PFEDFFGNRRGPR [DNAJB6_118 − 130, DnaJ homolog subfamily B member 6 peptide]”: in the assay on USP8 MIT domain [4], the “Percentage (%) normalized” value is given as 100%; the “Percentage (%)” value is on record as 100%. Moreover, the “residues important for binding” value in the assay on USP8 MIT domain [3] was “confirmed the importance of the aspartic acid and the phenylalanine of the predicted motif (DFx{2,3}R) and showed that the mutations of the flanking residues also reduced binding”.

As to YVDLDAFLLEHGLPPS [DBP116 − 131], in the assay with USP8 MIT domain [4], the “Percentage (%) normalized” value is listed as 67%; the “Percentage (%)” value is 67%. In the assay on USP8 MIT domain [2], the “NGS counts (%)” value is on record as 16.16%, the max_counts worked out at 858, the Confidence was 2 and the Counts was found to be 0.06958. In addition, in the assay with USP8 MIT domain [2], the Promiscuity is given as 3, the Replicates stood at 3 and the Specificity was 0.9006. For the same compound, in the assay with USP8 MIT domain [3], the “residues important for binding” value was “revealed the importance of an extended DxDxFxxEHG stretch”.
